Patent publication US4309343A, “Pharmacologically active peptides” (Eli Lilly and Company, priority 1980, dated 1982)
“And” between values parts separate entries of the source, which are not always exact repeats. Equal values may be shown once. Where a name gives a salt, the structure may show the parent alone.

Key:
[1] = tested on: mice; conditions: cited from earlier work; for analgesic activity upon intracerebroventricular administration: mice, intracerebroventricularly, Buscher et al., Nature, 261, 423 (1976); for analgesic activity when administered parenterally: parenteral administration
[2] = tested on: mouse (Cox Standard); experiment: mouse hot plate test (mouse jump); format: in vivo; conditions: subcutaneous injection, 15 minutes after administration, hot plate 52° C., dose producing analgesia in 50% of mice
Description: In the mouse hot plate test, an upright acrylic cylinder comprising, as its base, a hot plate surface which is maintained at 52° C. is used. A mouse (Cox Standard) is given, by subcutaneous injection, a predetermined amount of test compound dissolved or suspended in a suitable carrier, and, 15 minutes after administration of the test compound, the mouse is placed on the hot plate surface. The latency in seconds until the mouse jumps from the hot plate surface is measured. […] This must occur in a dose range which produces no motor incoordination or incapacitation. The following Table records ED50 results obtained from this test. By the term "ED50 " is meant that dose which produces analgesia in 50% of the mice tested. Analgesia is defined as a response latency in the presence of test compound that is equal to or greater than the control response latency plus two standard deviations. The percent analgesia data are converted to probits, and the ED50 is calculated by regression analysis of the dose-response data. Each dose response curve must have at least four points, and each point is determined using data from a minimum of ten treated mice and ten control mice.

[3] = tested on: mouse vas deferens; experiment: mouse vas deferens test, electrically evoked twitch; format: cell-based; conditions: concentration causing depression of 50% of the electrically evoked contraction; field stimulation 0.15 Hz, 1 msec., 40 V; 37° C.
Description: In the mouse vas deferens test, single mouse vas deferens from mature mice (Cox, 30-40 g.) are suspended in 3 ml. of modified Kreb's solution aerated with 95% O2 -5% CO2 and maintained at 37° C. The twitch induced by field stimulation (0.15 Hz, 1 msec., 40 V) is recorded on a polygraph via an isometric transducer. The test compound is added to the bath in 20 to 30 μl. aliquots. A dose-response curve is constructed by cumulative addition of appropriate amounts of the compound to the bath. Comparison of relative agonist potency is made on the basis of IC50 values (concentration causing depression of 50% of the electrically evoked contraction).

In the case of “H-Tyr-Gly-Gly-Phe-Met-OH [methionine enkephalin]”, the “analgesic activity upon intracerebroventricular administration” value [1] is given as “exhibit analgesic activity” and the “analgesic activity when administered parenterally” value [1] is given as “practically devoid of any useful analgesic activity”.
For “H-Tyr-Gly-Gly-Phe-Leu-OH. [leucine enkephalin]”, the “analgesic activity upon intracerebroventricular administration” value [1] is given as “exhibit analgesic activity” and the “analgesic activity when administered parenterally” value [1] is given as “practically devoid of any useful analgesic activity”.
For `C[C@@H](NC(=O)[C@@H](N)Cc1ccc(O)cc1)C(=O)NCC(=O)N[C@@H](Cc1ccccc1)C(N)=O` [H--LTyr--DAla--Gly--LPhe--NH2], the “Mouse Jump ED50” value [2] was 0.85 mg/kg and the IC50 [3] was 0.189 µM.
In the case of `CSCC[C@@H](C(N)=O)N(C)C(=O)[C@H](Cc1ccccc1)NC(=O)CNC(=O)[C@@H](C)NC(=O)[C@@H](N)Cc1ccc(O)cc1` [H--LTyr--DAla--Gly--LPhe--L(N--Me)Met--NH2], the “Mouse Jump ED50” value [2] is reported as 0.363 mg/kg and the IC50 [3] is reported as 0.0122 µM.
With `C[C@@H](NC(=O)[C@@H](N)Cc1ccc(O)cc1)C(=O)NCC(=O)N[C@@H](Cc1ccccc1)C(=O)NCCCCCCCCNC(=O)[C@H](Cc1ccccc1)NC(=O)CNC(=O)[C@@H](C)NC(=O)[C@@H](N)Cc1ccc(O)cc1` [Example 2, N,N'-1,8-Octanediylbis-[L-tyrosyl-D-alanyl-glycyl-L-phenylalanylamide], Diacetate Salt] the “Mouse Jump ED50” value [2] was > 30 mg/kg and the IC50 [3] was 0.067 µM.
For `CC(=O)O.CC(=O)O.C[C@@H](NC(=O)[C@@H](N)Cc1ccc(O)cc1)C(=O)NCC(=O)N[C@@H](Cc1ccccc1)C(=O)NCCCCNC(=O)[C@H](Cc1ccccc1)NC(=O)CNC(=O)[C@@H](C)NC(=O)[C@@H](N)Cc1ccc(O)cc1` [Example 1, N,N'-1,4-Butanediylbis-[L-tyrosyl-D-alanyl-glycyl-L-phenylalanylamide], Diacetate Salt], the “Mouse Jump ED50” value [2] was 0.370 mg/kg and the IC50 [3] was 0.00283 µM.
With “N,N'-1,4-Butanediylbis-[L-tyrosyl-D-alanyl-glycyl-L-phenylalanyl-L-(N^α -methyl)methioninamide], Diformate Salt [Example 4]” the “Mouse Jump ED50” value ([2]; Diformate Salt) was 5.5 mg/kg and 9.85 mg/kg.
